The nature of data set [1]: Determination of solubility. In kind it is physicochemical. Conditions: aqueous buffer, thermodynamic from solid, 37° C. 1 h. As to the method: About 0.5 mg of a to-be-tested sample in a centrifuge tube is weighted, an appropriate amount of DMSO is added to completely dissolve the sample, and then methanol is added to make up to 1 ml.
(If there are more pH values to be investigated, the preparation method may be deduced by analogy).
3. The prepared control solution and test solution are simultaneously put into a 37° C. water bath and heated for 1 h, after 1 h, the solutions are taken out and cooled to room temperature, and then the solutions are filtered with a 0.22 μm filter membrane for sample injection.
4. The concentration of the sample in the test solution is calculated according to C=(A*(ms/vs))/AS, and experiment results are shown in Table 2.
Note: ms, vs and AS are the weight, volume and peak area of the sample in the control solution, respectively.
A is the peak area of the test solution.

Data set [2] is described as follows: Pharmacokinetic experiment in Beagle dogs (IV and PO). In kind it is in vivo. The settings on record: male, dog, plasma, PO 5 mg/kg. The source says:
Polyethylene glycol 400 (batch number: GORKREUT, Saen Chemical Technology (Shanghai) Co., Ltd.); DMSO (batch number: 20200319, GHTECH (Guangdong) Co., Ltd.); and normal saline (batch number: C20052604, Jiangxi Kelun Pharmaceutical Co., Ltd.). An LC-MS instrument (Thermo Fisher Ultimate 3000 UPLC, TSQ QUANTUM ULTRA TSQ Quantum GC).
5 male Beagle dogs with weights being 5 kg to 7 kg, purchased from Beijing Mars Biotechnology Co., Ltd. […]
After the above mixture is given to the dogs through intragastric administration (n=3) or intravenous administration (n=2), about 1 mL of blood is collected from the forelimb or hindlimb vein with a scalp needle, respectively, at 5 min (intravenous administration only), 15 min, 30 min, 1 h, 2 h, 4 h, 6 h, 8 h, 24 h to put into blood collection tubes containing EDTA-K2 anticoagulant; centrifugation is performed for 10 min at 4000 rpm to separate plasma; and then the tubes are stored at −80° C. for testing.
A certain amount of a test sample is accurately weighted and dissolved with DMSO to 2 mg/mL, as a stock solution. The stock solution is diluted to 30000, 10000, 3000, 1000, 300, 100, 50, 30, and 10 ng/mL by using acetonitrile:water (1:1), to obtain standard curve working solutions. 5 μL of the working solution is added to 45 μL of blank canine plasma; and well mixing is performed through vortex, to prepare into standard curve samples equivalent to plasma concentrations of 3000, 1000, 300, 100, 30, 10, 5, 3, and 1 ng/mL. 30 μL of the standard curve sample and the collected plasma sample (plasma collected at 5 min, 15 min, and 30 min of intravenous administration is diluted 5-fold) are added to 150 μL of a propranolol acetonitrile solution (internal standard, 50 ng/mL) to precipitate protein, then 100 μL of water is added to well mix through vortex; centrifugation is performed for 5 min at 4000 rpm; and supernatant is taken for LC-MS analysis. LC-MS detection conditions include the following.
Chromatographic column: Waters ACQUITY™ PREMIER HSS T3, 50*2.1 mm, 1.8 μm.
Mobile phase A: water (0.1% formic acid); mobile phase B: acetonitrile; flow rate: 0.5 mL/min; and gradient elution is shown in Table 3 below.
After LC-MS detection of blood drug concentration, and a non-compartment model of WinNonlin 6.1 software is adopted to calculate pharmacokinetic parameters of beagle dogs after administration.

A further data set has as its target p38α/MK2 complex (Homo sapiens, UniProt P49137+Q16539). Nature of the data set: p38α/MK2 complex kinase screening experiment (IMAP FP). In kind it is biochemical. Conditions: p38α 0.2 nM, MK2 unactive 1 nM, HSP27 substrate 1 μM, ATP 10 μM; read-out: IC50 value that the compound inhibits p38α/MK2 complex. As to the method:
A certain amount of a drug is weighted and prepared into a 10 mM of mother solution by using DMSO; the mother solution is diluted to 100 μM (100× working solution) in two steps; and then, the solution is diluted 3-fold to 33.33 μM, 11.11 μM, 3.70 μM, 1.23 μM, 0.41 μM, 0.14 μM, 0.046 μM, 0.015 μM, and 0.005 μM, successively. DMSO control is also arranged.
Then, a series of diluted DMSO drugs are diluted 25 folds with 1×IMAP Reaction Buffer as a 4× drug working solution.
10 gradient concentrations and 2 duplicated wells are set to each group of compounds; and a DMSO control group and a negative control group (DMSO, no ATP) are additionally set.
• c), after 1 h of incubation at room temperature, 1× Progressive Binding Solution is added to end the enzymatic reaction; after 30 min of incubation, a BMGPHERASTER FSX multifunctional microplate reader is used to detect a Fluorescence Polarization (FP) signal [FP(Ex485/Em520/Em520 nm)].

In another data set the target is p38α (Homo sapiens, UniProt Q16539). Briefly: p38α kinase screening experiment (ADP-Glo). In kind it is biochemical. The protocol: (§1) A certain amount of the compound is weighed, prepared into a 10/50 mM mother solution with DMSO, diluted 3 folds with DMSO, and diluted to 10 concentration points as a compound working solution.
50 nL of the diluted compound working solution is transferred to each well of a reaction plate (784075, Greiner) with Echo 655, then 2.5 μL (4 ng/μL) of a p38α kinase solution is added; after 10 minutes at room temperature, 2.5 μL of a mixed solution of a kinase substrate (0.2 mg/mL) and ATP (150 μM) is added, for reaction for 60 min at room temperature; and 4 μL of an ADP Glo reagent is added, for incubation for 40 min at room temperature. 8 μL of a kinase detection reagent is added, for incubation for 40 min at room temperature; and finally a light-emitting signal is read on Envision 2104.

The next data set concerns the target p38β (Homo sapiens, UniProt Q15759). Briefly: p38β kinase screening experiment (ADP-Glo). In kind it is biochemical. As to the method: as §1
50 nL of the diluted compound working solution is transferred to each well of a reaction plate (784075, Greiner) with Echo 655, then 2.5 μL (2 ng/μL) of a p38β kinase solution is added; after 10 minutes at room temperature, 2.5 μL of a mixed solution of a kinase substrate (0.4 mg/mL) and ATP (100 μM) is added, for reaction for 60 min at room temperature; and 4 μL of an ADP Glo reagent is added, for incubation for 40 min at room temperature. 8 μL of a kinase detection reagent is added, for incubation for 40 min at room temperature; and finally a light-emitting signal is read on Envision 2104.

Here are results for one compound from US20240166627A1, “Terpyridinedione compound or salt thereof, and preparation method and application thereof” (SHENZHEN SALUBRIS PHARMACEUTICALS CO., LTD., priority 2021, published 2024).

Converted amounts (≈) assume the structure as drawn.

Sequence of p38α (Q16539 whole entry): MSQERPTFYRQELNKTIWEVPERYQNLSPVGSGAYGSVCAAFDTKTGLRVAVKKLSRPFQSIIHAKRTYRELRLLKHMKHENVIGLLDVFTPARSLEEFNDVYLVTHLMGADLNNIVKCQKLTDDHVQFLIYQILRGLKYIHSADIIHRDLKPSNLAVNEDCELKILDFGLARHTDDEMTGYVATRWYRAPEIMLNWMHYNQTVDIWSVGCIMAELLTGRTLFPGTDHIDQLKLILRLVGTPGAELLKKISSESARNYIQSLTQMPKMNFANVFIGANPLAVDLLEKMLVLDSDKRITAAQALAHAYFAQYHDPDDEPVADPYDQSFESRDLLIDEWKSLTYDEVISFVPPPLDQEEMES
Sequence of p38β (Q15759 whole entry): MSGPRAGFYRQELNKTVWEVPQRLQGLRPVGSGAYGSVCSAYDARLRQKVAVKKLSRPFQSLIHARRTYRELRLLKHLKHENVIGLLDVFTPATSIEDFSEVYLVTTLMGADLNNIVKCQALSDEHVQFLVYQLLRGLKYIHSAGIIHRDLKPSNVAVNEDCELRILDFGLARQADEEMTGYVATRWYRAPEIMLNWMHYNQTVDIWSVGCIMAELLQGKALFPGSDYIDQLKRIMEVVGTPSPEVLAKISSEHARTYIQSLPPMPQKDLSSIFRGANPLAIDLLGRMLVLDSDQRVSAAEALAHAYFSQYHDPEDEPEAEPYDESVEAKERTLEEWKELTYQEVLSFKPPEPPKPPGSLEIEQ
Sequence of p38α/MK2 complex (Q16539 whole entry): as the sequence (Q16539 whole entry) above
Sequence of p38α/MK2 complex (P49137 whole entry): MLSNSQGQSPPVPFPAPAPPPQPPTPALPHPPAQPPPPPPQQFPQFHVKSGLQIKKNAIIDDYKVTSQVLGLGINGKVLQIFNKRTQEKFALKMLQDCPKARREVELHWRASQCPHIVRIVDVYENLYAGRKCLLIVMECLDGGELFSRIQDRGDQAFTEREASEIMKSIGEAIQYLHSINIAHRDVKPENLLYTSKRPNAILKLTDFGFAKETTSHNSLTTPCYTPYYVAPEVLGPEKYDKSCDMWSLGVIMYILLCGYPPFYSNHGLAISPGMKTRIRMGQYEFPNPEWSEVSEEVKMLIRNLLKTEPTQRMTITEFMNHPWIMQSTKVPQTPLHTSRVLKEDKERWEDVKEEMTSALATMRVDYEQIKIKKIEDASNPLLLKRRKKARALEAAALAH

In the case of `Cc1cnc(-n2cccc(C(C)(C)O)c2=O)cc1-n1c(C)cc(OCc2ncc(F)cc2F)c(Cl)c1=O` [Comparative example 1], the solubility at 1 h in data set [1] (pH = 2.0, PBS buffer) worked out at 427 µg/mL (≈ 807 µM); in data set [1] (pH = 7.4, PBS buffer), 595 µg/mL (≈ 1130 µM). This compound returned an AUC(0-t) in data set [2] of 32900 ng·h/mL. Moreover, the maximum concentration (Cmax) in data set [2] came out at 5550 ng/mL. The IC50 on p38α/MK2 complex was 2.6 nM; at p38α (ATP 150 μM in the substrate/ATP mix, 60 min, read-out: IC50 value that the compound inhibits p38α) it was 578 nM; on p38β (ATP 100 μM in the substrate/ATP mix, 60 min, read-out: IC50 value that the compound inhibits p38β), 4100 nM. The “Activity multiple relative to p38α/(p38α/MK2 complex)” value at p38α (ratio of p38α IC50 to p38α/MK2 complex IC50 of Embodiment 50) was determined as 222. At p38β (ratio of p38β IC50 to p38α/MK2 complex IC50 of Embodiment 50), the “Activity multiple relative to p38β/(p38α/MK2 complex)” value is recorded as 1575.
